The text below walks through data of patent publication US4425435A, “Cholesterol oxidase and process for producing same” (Takara Shuzo Co., Ltd., priority 1980, dated 1984).

One test concerns cholesterol oxidase. As to the kind of experiment: Substrate specificity: hydrogen peroxide decomposed with peroxidase, chromogen colour. It is filed as biochemical, Basidiomycetes. Conditions: hydrogen peroxide liberated from dehydrogenation of the 3β-position.
In the case of `C[C@@H](O)[C@H]1CC[C@H]2[C@@H]3CC[C@H]4C[C@@H](O)CC[C@]4(C)[C@H]3CC[C@]12C` [5α-pregnan-3β,20β-diol], the “enzyme acts on the sterol (substrate specificity)” value (“enzyme acts on the sterol” below) is listed as “act on”.
For `CC(C)[C@H](C)CC[C@@H](C)[C@H]1CC[C@H]2[C@@H]3CC=C4C[C@@H](O)CC[C@]4(C)[C@H]3CC[C@]12C` [campesterol], the “enzyme acts on the sterol” value is “act on”.
Same read-out and setting: the entry for `CC(C)CCC[C@@H](C)[C@H]1CC[C@H]2[C@@H]3CC=C4C[C@@H](O)CC[C@]4(C)[C@H]3CC[C@]12C` [cholesterol] is “act on”.
Take `C[C@]12CC[C@H](O)CC1=CC[C@@H]1[C@@H]2CC[C@]2(C)C(=O)CC[C@@H]12` [dehydroepiandrosterone]: the “enzyme acts on the sterol” value was “act on”.
Same read-out and setting: the entry for `CC(C)[C@@H](C)/C=C/[C@@H](C)[C@H]1CC[C@H]2C3=CC=C4C[C@@H](O)CC[C@]4(C)[C@H]3CC[C@]12C` [ergosterol] is “act on”.
For the compound `CC(=O)[C@H]1CC[C@H]2[C@@H]3CC=C4C[C@@H](O)CC[C@]4(C)[C@H]3CC[C@]12C` [pregnenolone], the “enzyme acts on the sterol” value was “act on”.
On the same count and under the same terms, the entry for `CC[C@H](/C=C/[C@@H](C)[C@H]1CC[C@H]2[C@@H]3CC=C4C[C@@H](O)CC[C@]4(C)[C@H]3CC[C@]12C)C(C)C` [stigmasterol] is “act on”.
On to `CC(C)CCC[C@@H](C)[C@H]1CC[C@H]2[C@@H]3CC[C@H]4C[C@@H](O)CC[C@]4(C)[C@H]3CC[C@]12C` [β-cholestanol], for which the “enzyme acts on the sterol” value is listed as “act on”.
The same measure, in the same setting: the entry for `CC[C@H](CC[C@@H](C)[C@H]1CC[C@H]2[C@@H]3CC=C4C[C@@H](O)CC[C@]4(C)[C@H]3CC[C@]12C)C(C)C` [β-cytosterol] is “act on”.

A further test relates to cholesterol oxidase. The experiment in a line: Effect of inhibitors etc. on activity of the present enzymes. It is filed as biochemical, Basidiomycetes.
Details: not given
How it is done: The enzymatic activity is determined by measurement of the hydrogen peroxide produced by the reaction of the enzyme solution on the substrate cholesterol. The method is based on the sequence of reactions as follows: Thus cholesterol is oxidized by cholesterol oxidase to cholest-5-en-3-one with the evolution of hydrogen peroxide, which couples with 4-aminoantipyrine and phenol in the presence of peroxidase to yield a quinoneimine dye with maximum absorption at 500 nm. To conduct this reaction there is used a reaction mixture, in a final volume of 3.0 ml, composed of 0.1 ml of the enzyme solution, 2 μmoles of cholesterol in 0.1 ml of ethanol, 250 μmoles of phosphate buffer, pH 7.0, 2.46 μmoles of 4-aminoantipyrine, 42 μmoles of phenol, and 24 units of peroxidase obtained from horseradish. The reaction is carried out at 37° C. for 10 minutes with shaking. One unit of cholesterol oxidase activity was defined as the amount of the enzyme which catalyzes the oxidation of 1 μmole of cholesterol per minute at 37° C.
As for `[Ba+2]` [Ba^2+], the “inhibition of the enzyme activity” value is reported as “do not inhibit”.
On to `[Ca+2]` [Ca^2+], for which the “inhibition of the enzyme activity” value was “do not inhibit”.
`[Co+2]` [Co^2+]: the “inhibition of the enzyme activity” value is listed as “do not inhibit”.
In the case of `[Cu+2]` [Cu^2+], the “inhibition of the enzyme activity” value is reported as “markedly inhibited”.
On the same count and under the same terms, as for `O=C(O)CN(CCN(CC(=O)O)CC(=O)O)CC(=O)O` [EDTA], the entry is “not inhibitory”.
Same read-out and setting: as for `[Fe+2]` [Fe^2+], the entry is “do not inhibit”; as for `[Hg+2]` [Hg^2+], “markedly inhibited”; as for `[Mg+2]` [Mg^2+], “do not inhibit”.
On the same count and under the same terms, as for `[Mn+2]` [Mn^2+], the entry is “do not inhibit”; as for `[Ni+2]` [Ni^2+], “do not inhibit”.
For `N[C@@H](CCC(=O)N[C@@H](CS)C(=O)NCC(=O)O)C(=O)O` [glutathione], the “prevention of inhibition caused by Cu^2+ and Hg^2+” value is recorded as “almost completely prevented”.
With `c1cnc2c(c1)ccc1cccnc12` [o-phenanthroline], the “inhibition of the enzyme activity” value is reported as “not inhibitory”.
Still for that read-out and setting: the entry for `c1ccc(-c2ccccn2)nc1` [α,α'-dipyridyl] is “not inhibitory”; for `Oc1cccc2cccnc12` [β-hydroxyquinoline] it is “not inhibitory”.

Staying with this test, now noted: 0.01% of Triton X-100.
With Triton X-100, the “inhibition of the enzyme activity by detergent” value is on record as “inhibit almost completely”.
